The target in one data set is T1, human OCT2 (Homo sapiens, UniProt O15244).
T1 construct: host or cells: HEK293 (HEK293-OCT2); control HEK293-MOCK
T1 sequence (O15244 1-555): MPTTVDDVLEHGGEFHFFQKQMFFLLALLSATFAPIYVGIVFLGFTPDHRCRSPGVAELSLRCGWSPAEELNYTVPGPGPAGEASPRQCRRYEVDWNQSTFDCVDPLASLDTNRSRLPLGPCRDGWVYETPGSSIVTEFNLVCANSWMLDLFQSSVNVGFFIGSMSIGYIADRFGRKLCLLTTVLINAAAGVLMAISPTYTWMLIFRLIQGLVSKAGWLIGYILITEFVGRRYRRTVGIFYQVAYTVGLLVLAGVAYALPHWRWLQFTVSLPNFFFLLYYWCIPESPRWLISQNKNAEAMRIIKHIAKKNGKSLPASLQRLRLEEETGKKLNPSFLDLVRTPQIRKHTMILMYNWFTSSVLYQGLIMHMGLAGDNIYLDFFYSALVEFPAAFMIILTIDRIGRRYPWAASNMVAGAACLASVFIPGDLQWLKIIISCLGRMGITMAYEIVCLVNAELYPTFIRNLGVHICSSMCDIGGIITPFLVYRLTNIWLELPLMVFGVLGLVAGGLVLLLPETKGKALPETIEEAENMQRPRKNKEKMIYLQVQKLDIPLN
As to the kind of experiment: Uptake study, HEK293 cells overexpressing OCT2. The data set is classed as in vitro ADME. The method, then:
All cells (HEK293-MOCK, HEK293-OCT1, HEK293-OCT2, MDCK-MOCK, MDCK-OCTN1, and MDCK-OCTN2) were cultured in DMEM medium supplemented with 10% FBS and PS (100 U/mL), at 37 °C in a humidified 5% CO2 incubator. Cells were seeded on 24-well plates at a density of 1 × 10^4 cells/well. For the uptake assay, the DMEM media were removed, and the cells were washed with pre-warmed Hank’s buffer three times (1 mL/well). Subsequent addition of inhibitor-free/inhibitor-containing buffer was pre-incubated for 30 min at 37 °C prior to the initiation of the uptake experiment. After the pre-incubating buffer was removed, 200 μL of pre-warmed test drugs solution (Hank’s buffer containing 10 µM and 50 µM peramivir) or a mixture of test drugs and inhibitor was added into each well, and the plates were incubated at 37 °C for 5 min. At the end of incubation, cells were washed and lysed as described above. The cell lysate was collected and stored at −40 °C for LC-MS/MS analysis and protein measurement. The negative control (MOCK cells) and positive control were included simultaneously.

On the set-up of data set [1]: method as in PMID 15196586. To be noted: cited from earlier work.

The structures appear in SMILES notation. A value given as a limit tells only on which side of the number the result lay.

Data on 1 compound can be found in publication PMC11858854, “In Vitro and In Vivo Assessment of Pharmacokinetic Profile of Peramivir in the Context of Inhalation Therapy” (Pharmaceuticals, 2025).

Take `CCC(CC)[C@H](NC(C)=O)[C@@H]1[C@H](O)[C@@H](C(=O)O)C[C@H]1N=C(N)N` [Peramivir]: the OCT2 substrate status result at human OCT2 (HEK293-OCT2) was “does not act as a substrate”. Further, the “transporter-mediated uptake ratio (UR)” value at human OCT2 (HEK293-OCT2, 50 μM) is listed as less than 1. In addition, the “inhibition ratio (IR)” value on human OCT2 (HEK293-OCT2, 50 μM, inhibitor verapamil (200 μM)) is “exceeding 98.51%”. Also, in data set [1] (high solubility/low metabolism), the BDDCS category entry is “BDDCS-III”. Further, the BCS category result in data set [1] (high solubility/low permeability) is recorded as “BCS-III”.
